These results are taken from patent US20220024882A1, “NOVEL TUMOR ANTIGEN BINDING AGENTS AND USES THEREOF” (ITM Isotopen Technologien München AG, priority 2018, published 2022).

Data set [1] deals with PSMA-positive PC-3 PIP tumor cells. Description: Cell uptake and internalization, PSMA-positive cells. Format: cell-based. The text has this: (§1) Cell uptake and internalization of ^177Lu-Ibu-PSMA, ^177Lu-Ibu-Dα-PSMA, ^177Lu-Ibu-Dβ-PSMA, ^177Lu-Ibu-N-PSMA and ^177Lu-Ibu-DAB-PSMA were investigated using PSMA-positive PC-3 PIP and PSMA-negative PC-3 flu tumor cells kindly provided by Prof. Dr. Martin Pomper (John Hopkins Institutions, Baltimore, U.S.; Eiber, M.; Fendler, W. P.; Rowe, S. P.; Calais, J.; Hofman, M. S.; Maurer, T.; Schwarzenboeck, S. M.; Kratowchil, C.; Herrmann, K.; Giesel, F. L. Prostate-specific membrane antigen ligands for imaging and therapy. J Nucl Med 2017, 58, (Suppl 2), 67S-76S). Each radioligand was investigated by the performance of experiments performed 3 times in triplicate with PC-3 PIP tumor cell and once in triplicate with PC-3 flu tumor cells.
(§2) Cell uptake and internalization of ^177Lu-Ibu-sPSMA were investigated using PSMA-positive PC-3 PIP and PSMA-negative PC-3 flu tumor cells kindly provided by Prof. Dr. Martin Pomper (Johns Hopkins University School of Medicine, Baltimore, Md., U.S.A.) (Eiber, et al.; J Nucl Med 2017, 58, (Suppl 2), 67S-76S). ^177Lu-Ibu-sPSMA was investigated by performing experiments 3 times in 6 replicates with PC-3 PIP tumor cells and 3 times in 6 replicates with PC-3 flu tumor cells.

A short description of data set [2]: Plasma protein binding, ultrafiltration assay. The format is in vitro ADME. To be noted: incubated in human plasma at 37° C., read-out: fraction of radioligand retained in the filter membrane (serum protein binding) (converted). The protocol:
In short, the PSMA-ligands were labeled with ^177Lu at a specific activity of 50 MBq/nmol and incubated in human plasma samples or PBS at room temperature. The free and plasma-bound fractions were separated using a centrifree ultrafiltration device (4104 centrifugal filter units; Millipore, 30000 Da nominal molecular weight limit, methylcellulose micropartition membranes). The incubated solution was loaded to the ultrafiltration device and centrifuged at 2500 rpm for 40 min at 20° C. Samples from the filtrate were taken and analyzed for radioactivity in a γ-counter. The amount of plasma-bound radioligand was calculated as the fraction of radioactivity measured in the […] relative to the corresponding loading solution (set to 100%). The experiments were performed at least 3 times for each radioligand.
Plasma protein-binding properties of ^177Lu-Ibu-sPSMA were determined using an ultrafiltration assay according to Benesova, M. et al. (Mol Pharm 2018, 15, (3), 934-946). In short, the Ibu-sPSMA-ligand was labeled with ^177Lu at a molar activity of 50 MBq/nmol and incubated in human plasma samples or PBS at 37° C. […] Samples from the filtrate were taken and analyzed for radioactivity in a γ-counter. The amount of plasma-bound radioligand was calculated as the fraction of radioactivity measured in the […] relative to the corresponding loading solution (set to 100%). […]

For data set [3], the system named is PSMA-negative PC-3 flu tumor cells. Description: Cell uptake, PSMA-negative cells. To be noted: after 4 h. The format is cell-based.
Source text: as §1, §2

As to `CC(C)Cc1ccc(C(C)C(=O)NCC[C@H](NC(=O)CN2CCN(CC(=O)O)CCN(CC(=O)O)CCN(CC(=O)O)CC2)C(=O)NCC2CCC(C(=O)N[C@@H](Cc3ccc4ccccc4c3)C(=O)NCCCC[C@H](NC(=O)N[C@@H](CCC(=O)O)C(=O)O)C(=O)O)CC2)cc1` (stereo partly shown) [^177Lu-Ibu-sPSMA, metal not drawn], the internalized fraction in data set [1] (2 h incubation) came to 18%; in data set [1] (4 h incubation), 22%. For the same compound, in data set [2], the fraction unbound is about 0.03. Further, the “uptake in PC-3 flu tumor cells” value in data set [3] is under 0.1%.
